The values below come from patent publication US11542255B2, “Sulfonylureas and sulfonylthioureas as NLRP3 inhibitors” (Inflazome Limited, priority 2017, dated 2023).

Counter-ions that a name gives are not always drawn.

Experiment [1] concerns the target T1, NLRP3 (Homo sapiens, UniProt Q96P20). Briefly: Human whole blood IL1β release assay (LPS + nigericin, AlphaLisa IL-1β). The format is cell-based. More on the design: Human whole blood in Li-heparin tubes was obtained from healthy donors from a volunteer donor panel; from tissue; host or cells: human whole blood from healthy donors. The following applies: NLRP3 inhibitory activity, 1 μg/ml LPS, 10 μM nigericin, IL-1β release, read-out: HWB IC50. The method, boiled down:
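Donor human whole blood (Li-heparin) was primed with 1 μg/mL LPS while incubated with compound (8-point half-log, 10 μM top, 0.1% DMSO) for 3 h at 37° C., then stimulated with 10 μM nigericin for 1 h. Supernatant IL-1β measured by AlphaLISA; IC50 from 4-parameter nonlinear fit.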
For orientation: Alpha assays give light when donor and acceptor beads are brought close together.

The target in experiment [2] is T1, NLRP3. Briefly: THP-1 cells pyroptosis assay (LPS + nigericin, resazurin readout). On the set-up: Seed THP-1 cells (25,000 cells/well) containing 1.0 μg/ml LPS in 40 μl of RPMI medium; host or cells: THP-1 cells. The following applies: NLRP3 inhibitory activity, 1.0 μg/ml LPS, 5 μM nigericin. It counts as cell-based. The procedure, abridged: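 LPS-primed (1 μg/ml) THP-1 cells, 25,000/well in serum-free RPMI, given compound (8-point half-log, 10 μM top; 0.1% DMSO) for 3 h at 37 °C, then nigericin 5 μM for 1 h. Viability by resazurin (100 μM, 1-2 h), Ex 560/Em 590 nm; IC50 from 4-parameter variable-slope fit.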
(In general: The colour change of resazurin is a common sign of viable cells or microbes.)

T1 sequence (Q96P20 whole entry): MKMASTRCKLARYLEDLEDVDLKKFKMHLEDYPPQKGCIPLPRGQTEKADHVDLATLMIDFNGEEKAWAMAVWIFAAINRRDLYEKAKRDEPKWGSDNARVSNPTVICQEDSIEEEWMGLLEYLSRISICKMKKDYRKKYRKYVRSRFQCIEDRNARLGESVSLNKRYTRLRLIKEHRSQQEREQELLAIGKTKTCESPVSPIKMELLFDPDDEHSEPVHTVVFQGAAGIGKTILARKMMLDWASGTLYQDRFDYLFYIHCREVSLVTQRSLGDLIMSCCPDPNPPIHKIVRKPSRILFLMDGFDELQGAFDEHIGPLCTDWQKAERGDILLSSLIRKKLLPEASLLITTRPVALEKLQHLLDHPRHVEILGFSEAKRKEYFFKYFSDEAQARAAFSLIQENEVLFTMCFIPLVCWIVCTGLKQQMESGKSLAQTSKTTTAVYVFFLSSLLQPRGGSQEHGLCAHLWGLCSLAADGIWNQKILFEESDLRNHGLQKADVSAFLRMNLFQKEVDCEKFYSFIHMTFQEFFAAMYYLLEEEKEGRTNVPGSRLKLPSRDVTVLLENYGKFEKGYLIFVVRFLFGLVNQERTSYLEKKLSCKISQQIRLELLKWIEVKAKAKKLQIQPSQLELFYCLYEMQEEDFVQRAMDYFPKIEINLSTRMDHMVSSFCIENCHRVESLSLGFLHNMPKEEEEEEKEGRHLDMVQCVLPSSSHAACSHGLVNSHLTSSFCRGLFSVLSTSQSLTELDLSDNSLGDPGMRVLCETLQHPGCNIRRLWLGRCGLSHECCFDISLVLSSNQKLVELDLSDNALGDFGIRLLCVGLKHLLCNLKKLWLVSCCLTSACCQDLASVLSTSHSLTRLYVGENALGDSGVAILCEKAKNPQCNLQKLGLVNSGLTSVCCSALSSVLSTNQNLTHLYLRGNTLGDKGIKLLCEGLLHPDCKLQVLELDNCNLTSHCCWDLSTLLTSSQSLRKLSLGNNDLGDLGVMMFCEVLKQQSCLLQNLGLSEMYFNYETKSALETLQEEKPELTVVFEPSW

As a reminder, the IC50 is the concentration at which inhibition is half-maximal. For `CC(C)c1cc(F)cc(C(C)C)c1NC(=O)NS(=O)(=O)c1cc(CN2CCCC2)n(C)n1` [Example 81, N-((4-Fluoro-2,6-diisopropylphenyl)carbamoyl)-1-methyl-5-(pyrrolidin-1-ylmethyl)-1H-pyrazole-3-sulfonamide], the IC50 in experiment [1] was below 400 nM; in experiment [2] it was 160 to 640 nM.

On to `CCN(CC)Cc1cc(S(=O)(=O)NC(=O)Nc2c3c(cc4c2CCC4)CCC3)nn1C` [Example 82, 5-((Diethylamino)methyl)-N-((1,2,3,5,6,7-hexahydro-s-indacen-4-yl)carbamoyl)-1-methyl-1H-pyrazole-3-sulfonamide, Sodium Salt], for which the IC50 was in the range of 800 to 1600 nM in experiment [1] and 40 to 160 nM in experiment [2].

On to `CCN(CC)Cc1cc(S(=O)(=O)NC(=O)Nc2c(C(C)C)cc(F)cc2C(C)C)nn1C` [Example 83, 5-((Diethylamino)methyl)-N-((4-fluoro-2,6-diisopropylphenyl)carbamoyl)-1-methyl-1H-pyrazole-3-sulfonamide, sodium Salt], for which the IC50 in experiment [1] was 400 to 800 nM; in experiment [2] it was 640 to 2560 nM.

With `CC(C)c1cc(F)cc(C(C)C)c1NC(=O)NS(=O)(=O)c1cc(CN(C)C(C)C)n(C)n1` [Example 90, N-((4-Fluoro-2,6-diisopropylphenyl)carbamoyl)-5-((isopropyl(methyl)amino)methyl)-1-methyl-1H-pyrazole-3-sulfonamide, sodium Salt], the IC50 in experiment [1] was below 400 nM; in experiment [2], 160 to 640 nM.

As for `CN(C)C(c1cc(S(=O)(=O)NC(=O)Nc2c3c(cc4c2CCC4)CCC3)nn1C)C(F)(F)F` (centres unmarked) [Example 95, 5-(˜(Dimethylamino)-2,2,2-trifluoroethyl)-N-((1,2,3,5,6,7-hexahydro-s-indacen-4-yl)carbamoyl)-1-methyl-1H-pyrazole-3-sulfonamide], the IC50 in experiment [1] was 800 to 1600 nM; in experiment [2], below 40 nM.

Turning to `CC(C)n1nc(S(=O)(=O)NC(=O)Nc2c3c(cc4c2CCC4)CCC3)cc1CN(C)CC(F)(F)F` [Example 96, N-((1,2,3,5,6,7-Hexahydro-s-indacen-4-yl)carbamoyl)-1-isopropyl-5-((methyl(2,2,2-trifluoroethyl)amino)methyl)-1H-pyrazole-3-sulfonamide], the IC50 lay in the range of 3200 to 10000 nM in experiment [1] and 40 to 160 nM in experiment [2].

With `COCCN(CCO)C(=O)c1cc(S(=O)(=O)NC(=O)Nc2c3c(cc4c2CCC4)CCC3)nn1C` [Example 102, 3-(N-((1,2,3,5,6,7-Hexahydro-s-indacen-4-yl)carbamoyl)sulfamoyl)-N-(2-hydroxyethyl)-N-(2-methoxyethyl)-1-methyl-1H-pyrazole-5-carboxamide, Partial ammonium Salt], the IC50 was 400 to 800 nM in experiment [1] and 40 to 160 nM in experiment [2].

As to `CN(C)C1(c2cc(S(=O)(=O)NC(=O)Nc3c4c(cc5c3CCC5)CCC4)nn2C)COC1` [Example 115, 5-(3-(Dimethylamino)oxetan-3-yl)-N-((1,2,3,5,6,7-hexahydro-s-indacen-4-yl)carbamoyl)-1-methyl-1H-pyrazole-3-sulfonamide], the IC50 lay within 800 to 1600 nM in experiment [1] and 160 to 640 nM in experiment [2].

As to `CC(C)c1cc(F)cc(C(C)C)c1NC(=O)NS(=O)(=O)c1cc(CN(C)CCO)n(C)n1` [Example 116, N-((4-Fluoro-2,6-diisopropylphenyl)carbamoyl)-5-(((2-hydroxyethyl)(methyl)amino)methyl)-1-methyl-1H-pyrazole-3-sulfonamide], the IC50 in experiment [1] is below 400 nM; in experiment [2], 160 to 640 nM.

For `CN(CCO)Cc1cc(S(=O)(=O)NC(=O)Nc2c3c(cc4c2CCC4)CCC3)nn1C` [Example 117, N-((1,2,3,5,6,7-Hexahydro-s-indacen-4-yl)carbamoyl)-5-(((2-hydroxyethyl)(methyl)amino)methyl)-1-methyl-1H-pyrazole-3-sulfonamide], the IC50 in experiment [1] was below 400 nM; in experiment [2] it was 40 to 160 nM.

`COCCN(C)Cc1cc(S(=O)(=O)NC(=O)Nc2c3c(cc4c2CCC4)CCC3)nn1C` [Example 119, N-((1,2,3,5,6,7-Hexahydro-s-indacen-4-yl)carbamoyl)-5-(((2-methoxyethyl)(methyl)amino)methyl)-1-methyl-1H-pyrazole-3-sulfonamide, Sodium Salt]: the figures for the IC50 in experiment [1] and in experiment [2] were 1600 to 3200 nM and 160 to 640 nM, respectively.

`CC(C)c1cc(F)cc(C2CCOCC2)c1NC(=O)NS(=O)(=O)c1cc(C(=O)N(C)C)n(C)n1` [Example 126, 3-(N-((4-Fluoro-2-isopropyl-6-(tetrahydro-2H-pyran-4-yl)phenyl)carbamoyl)sulfamoyl)-N,N,1-trimethyl-1H-pyrazole-5-carboxamide, Sodium Salt]: the IC50 was 400 to 800 nM in experiment [1] and 640 to 2560 nM in experiment [2].

Turning to `CC(C)c1cc(F)cc(-c2cnn(C)c2)c1NC(=O)NS(=O)(=O)c1cc(C(=O)N(C)C)n(C)n1` [Example 128, 3-(N-((4-Fluoro-2-isopropyl-6-(1-methyl-1H-pyrazol-4-yl)phenyl)carbamoyl)sulfamoyl)-N,N,1-trimethyl-1H-pyrazole-5-carboxamide, Sodium Salt], the IC50 in experiment [1] was below 400 nM; in experiment [2] it was 640 to 2560 nM.

As for `CC(C)c1cc(F)cc(-c2cccnc2)c1NC(=O)NS(=O)(=O)c1cc(C(=O)N(C)C)n(C)n1` [Example 134, 3-(N-((4-Fluoro-2-isopropyl-6-(pyridin-3-yl)phenyl)carbamoyl)sulfamoyl)-N,N,1-trimethyl-1H-pyrazole-5-carboxamide, sodium Salt], the IC50 is below 400 nM in experiment [1] and 40 to 160 nM in experiment [2].

Consider `CC(C)c1cc(F)cc(-c2cncnc2)c1NC(=O)NS(=O)(=O)c1cc(C(=O)N(C)C)n(C)n1` [Example 135, 3-(N-((4-Fluoro-2-isopropyl-6-(pyrimidin-5-yl)phenyl)carbamoyl)sulfamoyl)-N,N,1-trimethyl-1H-pyrazole-5-carboxamide, sodium Salt], for which the values for the IC50 in experiment [1] and in experiment [2] were below 400 nM and 160 to 640 nM, respectively.

As to `CCn1nc(S(=O)(=O)NC(=O)Nc2c(-c3cccc(C#N)c3)ccc3c2CCC3)cc1CN(C)C` [Example 173], the IC50 fell in the range of 400 to 800 nM in experiment [1] and 40 to 160 nM in experiment [2].

Consider `COCCN(CCOC)C(=O)c1cc(S(=O)(=O)NC(=O)Nc2c(-c3ccnc(OC(C)C)c3)cc(F)cc2C(C)C)nn1C` [Example 174, 3-(N-((4-Fluoro-2-(2-isopropoxypyridin-4-yl)-6-isopropyl-phenyl)carbamoyl)sulfamoyl)-N,N-bis(2-methoxyethyl)-1-methyl-1H-pyrazole-5-carboxamide, sodium salt], for which the IC50 in experiment [1] lay in the range of 3200 to 10000 nM; in experiment [2], 2560 to 10000 nM.

For `COCCN(CCOC)C(=O)c1cc(S(=O)(=O)NC(=O)Nc2c(-c3ccnc(OC)c3)ccc3c2CCC3)nn1C` [Example 175, N,N-Bis(2-methoxyethyl)-3-(N-((5-(2-methoxypyridin-4-yl)-2,3-dihydro-1H-inden-4-yl)carbamoyl)sulfamoyl)-1-methyl-1H-pyrazole-5-carboxamide, Sodium Salt], the IC50 in experiment [1] is below 400 nM; in experiment [2], 160 to 640 nM.

With `CC(C)Oc1cc(-c2cc(F)cc(C(C)C)c2NC(=O)NS(=O)(=O)c2cc(C(=O)N(C)C)n(C)n2)ccn1` [Example 176, 3-(N-((4-Fluoro-2-(2-isopropoxypyridin-4-yl)-6-isopropyl-phenyl)carbamoyl)sulfamoyl)-N,N,1-trimethyl-1H-pyrazole-5-carboxamide, sodium salt], the results for the IC50 in experiment [1] and in experiment [2] were 1600 to 3200 nM and 160 to 640 nM, respectively.

As for `COc1cc(-c2ccc3c(c2NC(=O)NS(=O)(=O)c2cc(C(=O)N(C)C)n(C)n2)CCC3)ccn1` [Example 177, 3-(N-((5-(2-Methoxypyridin-4-yl)-2,3-dihydro-1H-inden-4-yl)carbamoyl)sulfamoyl)-N,N,1-trimethyl-1H-pyrazole-5-carboxamide, sodium Salt], the IC50 in experiment [1] was below 400 nM; in experiment [2], below 40 nM.

Consider `CNCc1cc(S(=O)(=O)NC(=O)Nc2c(-c3ccnc(OC)c3)ccc3c2CCC3)nn1C1CC1` [Example 178], for which the IC50 in experiment [1] was below 400 nM; in experiment [2], 40 to 160 nM.

Consider `COc1cc(-c2ccc3c(c2NC(=O)NS(=O)(=O)c2cc(C4CCCN4C)n(C(C)C)n2)CCC3)ccn1` (centres unmarked) [Example 179], for which the IC50 in experiment [1] lay in the range of 800 to 1600 nM; in experiment [2] it was 40 to 160 nM.

Regarding `CCC(c1cc(S(=O)(=O)NC(=O)Nc2c(-c3ccnc(OC)c3)ccc3c2CCC3)nn1C(C)C)N(C)C` (centres unmarked) [Example 180], the 50% inhibitory concentration (IC50) is below 400 nM in experiment [1] and 40 to 160 nM in experiment [2].

`COc1cc(-c2ccc3c(c2NC(=O)NS(=O)(=O)c2cc(CN(C)C)n(C(C)C)n2)CCC3)ccn1` [Example 181]: the results for the IC50 in experiment [1] and in experiment [2] were below 400 nM and below 40 nM, respectively.

For `CNCc1cc(S(=O)(=O)NC(=O)Nc2c3c(cc4c2CCC4)CCC3)nn1C1CC1` [Example 183], the values for the IC50 in experiment [1] and in experiment [2] were 400 to 800 nM and 40 to 160 nM, respectively.

Turning to `CCn1nc(S(=O)(=O)NC(=O)Nc2c3c(cc4c2CCO4)CCC3)cc1CN(C)C` [Example 184], the IC50 in experiment [1] is 400 to 800 nM; in experiment [2], below 40 nM.

Take `CCn1nc(S(=O)(=O)NC(=O)Nc2c3c(cc4c2OCC4)CCC3)cc1CN(C)C` [Example 185]: the figures for the IC50 in experiment [1] and in experiment [2] were 1600 to 3200 nM and 160 to 640 nM, respectively.

`CC(C)n1nc(S(=O)(=O)NC(=O)Nc2c3c(cc4c2CCC4)CCC3)cc1C1CCCN1C` (centres unmarked) [Example 186]: the IC50 in experiment [1] is 400 to 800 nM; in experiment [2], below 40 nM.
